Test [1] deals with T1, HCV NS3/4A protease complex, J4L6S strain (Hepatitis C virus genotype 1b, UniProt O92972, C1454S/C1711G).
T1 construct: recombinant HCV NS3/4A protease complex (amino acids 1027 to 1711) for these strains; His tag (inferred from pET21b vector and Ni-NTA purification); made in house; host or cells: Escherichia coli BL21 (DE3), pET21b
The test can be described thus: FRET peptide assay to monitor HCV NS3/4A proteolytic activity (J4L6S strain). It is filed as biochemical, HCV genotype 1b. From the text:
(§1) HCV NS3 protease complexes, derived from the BMS strain, H77 strain or J4L6S strain, were generated, as described below. These purified recombinant proteins were generated for use in a homogeneous assay (see below) to provide an indication of how effective compounds of the present disclosure would be in inhibiting HCV NS3 proteolytic activity.
(§2) Serum from an HCV-infected patient was obtained from Dr. T. Wright, San Francisco Hospital. An engineered full-length cDNA (compliment deoxyribonucleic acid) template of the HCV genome (BMS strain) was constructed from DNA fragments obtained by reverse transcription-PCR (RT-PCR) of serum RNA (ribonucleic acid) and using primers selected on the basis of homology between other genotype 1a strains. From the determination of the entire genome sequence, a genotype 1a was assigned to the HCV isolate according to the classification of Simmonds et al. (See P Simmonds, K A Rose, S Graham, S W Chan, F McOmish, B C Dow, E A Follett, P L Yap and H Marsden, J. Clin. Microbiol., 31(6), 1493-1503 (1993)). […]

In test [2] the target is T2, HCV NS3/4A protease complex, BMS strain (UniProt P27958, species not given/STRAIN_BMS).
T2 construct: for H77 and J4L6S; fused on or other part: Three-lysine solubilizing tail at the end of NS4A, for the H77 and J4L6S constructs; Purification on Ni-NTA and the pET21b vector imply a His tag
T2 sequence (P27958 1027-1657, change not shown, one chain of several): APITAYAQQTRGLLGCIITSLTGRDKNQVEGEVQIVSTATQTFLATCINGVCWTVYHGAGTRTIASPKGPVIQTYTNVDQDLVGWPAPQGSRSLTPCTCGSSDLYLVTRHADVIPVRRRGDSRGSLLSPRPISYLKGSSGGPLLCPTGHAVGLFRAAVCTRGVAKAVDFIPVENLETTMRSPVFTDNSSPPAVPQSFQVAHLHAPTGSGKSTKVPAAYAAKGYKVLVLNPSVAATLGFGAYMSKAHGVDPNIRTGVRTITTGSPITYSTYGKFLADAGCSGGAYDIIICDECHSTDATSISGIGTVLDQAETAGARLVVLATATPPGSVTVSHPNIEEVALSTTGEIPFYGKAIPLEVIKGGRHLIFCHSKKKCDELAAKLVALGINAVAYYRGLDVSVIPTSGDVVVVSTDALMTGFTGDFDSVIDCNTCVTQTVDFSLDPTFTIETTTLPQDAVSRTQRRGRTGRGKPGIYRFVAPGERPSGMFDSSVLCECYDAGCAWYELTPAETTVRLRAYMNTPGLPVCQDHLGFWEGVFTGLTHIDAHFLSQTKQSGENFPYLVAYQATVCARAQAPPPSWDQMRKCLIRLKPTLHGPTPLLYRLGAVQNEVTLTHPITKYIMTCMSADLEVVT
The test can be described thus: FRET peptide assay to monitor HCV NS3/4A proteolytic activity (BMS strain). Format: biochemical, HCV genotype 1a.
Excerpt: as §1
Serum from an HCV-infected patient was obtained from Dr. T. Wright, San Francisco Hospital. An engineered full-length cDNA (compliment deoxyribonucleic acid) template of the HCV genome (BMS strain) was constructed from DNA fragments obtained by reverse transcription-PCR (RT-PCR) of serum RNA (ribonucleic acid) and using primers selected on the basis of homology between other genotype 1a strains. From the determination of the entire genome sequence, a genotype 1a was assigned to the HCV isolate according to the classification of Simmonds et al. (See P Simmonds, K A Rose, S Graham, S W Chan, F McOmish, B C Dow, E A Follett, P L Yap and H Marsden, J. Clin. Microbiol., 31(6), 1493-1503 (1993)). […] The infectious clones, H77 (1a genotype) and J4L6S (1b genotype) were obtained from R. Purcell (NIH) and the sequences are published in Genbank (AAB67036, see Yanagi, M., Purcell, R. H., Emerson, S. U. and Bukh, J. Proc. Natl. Acad. Sci. U.S.A. 94(16), 8738-8743 (1997); AF054247, see Yanagi, M., St Claire, M., Shapiro, M., Emerson, S. U., Purcell, R. H. and Bukh, J, Virology 244 (1), 161-172. (1998)).
The H77 and J4L6S strains were used for production of recombinant NS3/4A protease complexes. DNA encoding the recombinant HCV NS3/4A protease complex (amino acids 1027 to 1711) for these strains were manipulated as described by P. Gallinari et al. (see Gallinari P, Paolini C, Brennan D, Nardi C, Steinkuhler C, De Francesco R. Biochemistry. 38(17):5620-32, (1999)). Briefly, a three-lysine solubilizing tail was added at the 3′-end of the NS4A coding region. The cysteine in the P1 position of the NS4A-NS4B cleavage site (amino acid 1711) was changed to a glycine to avoid the proteolytic cleavage of the lysine tag. Furthermore, a cysteine to serine mutation was introduced by PCR at amino acid position 1454 to prevent the autolytic cleavage in the NS3 helicase domain. The variant DNA fragment was cloned in the pET21b bacterial expression vector (Novagen) and the NS3/4A complex was expressed in Escherichia. coli strain BL21 (DE3) (Invitrogen) following the protocol described by P. Gallinari et al. (see Gallinari P, Brennan D, Nardi C, Brunetti M, Tomei L, Steinkuhler C, De Francesco R., J Virol. 72(8):6758-69 (1998)) with modifications. Briefly, the NS3/4A protease complex expression was induced with 0.5 millimolar (mM) Isopropyl β-D-1-thiogalactopyranoside (IPTG) for 22 hours (h) at 20° C. A typical fermentation (1 Liter (L)) yielded approximately 10 grams (g) of wet cell paste. The cells were resuspended in lysis buffer (10 mL/g) consisting of 25 mM N-(2-Hydroxyethyl)Piperazine-N′-(2-Ethane Sulfonic acid) (HEPES), pH 7.5, 20% glycerol, 500 mM Sodium Chloride (NaCl), 0.5% Triton X-100, 1 microgram/milliliter (“μg/mL”) lysozyme, 5 mM Magnesium Chloride (MgCl2), 1 μg/ml DnaseI, 5 mM β-Mercaptoethanol (βME), Protease inhibitor-Ethylenediamine Tetraacetic acid (EDTA) free (Roche), homogenized and incubated for 20 minutes (min) at 4° C. The homogenate was sonicated and clarified by ultra-centrifugation at 235000 g for 1 h at 4° C. Imidazole was added to the supernatant to a final concentration of 15 mM and the pH adjusted to 8.0. The crude protein extract was loaded on a Nickel-Nitrilotriacetic acid (Ni-NTA) column pre-equilibrated with buffer B (25 mM HEPES, pH 8.0, 20% glycerol, 500 mM NaCl, 0.5% Triton X-100, 15 mM imidazole, 5 mM βME). The sample was loaded at a flow rate of 1 mL/min. The column was washed with 15 column volumes of buffer C (same as buffer B except with 0.2% Triton X-100). The protein was eluted with 5 column volumes of buffer D (same as buffer C except with 200 mM Imidazole). […]

Test [3] has as its target T3, HCV NS3/4A protease complex, H77 strain (Hepatitis C virus genotype 1a, UniProt P27958, C1454S/C1711G).
T3 construct: recombinant HCV NS3/4A protease complex (amino acids 1027 to 1711) for these strains; His tag (inferred from pET21b vector and Ni-NTA purification); made in house; host or cells: Escherichia coli BL21 (DE3), pET21b
The test can be described thus: FRET peptide assay to monitor HCV NS3/4A proteolytic activity (H77 strain). It is filed as biochemical, HCV genotype 1a.
Excerpt: as §1, §2

Read-outs that look alike come from different tables or passages of the source.

T3 sequence (P27958 1027-1711 C1454S/C1711G, one chain of several): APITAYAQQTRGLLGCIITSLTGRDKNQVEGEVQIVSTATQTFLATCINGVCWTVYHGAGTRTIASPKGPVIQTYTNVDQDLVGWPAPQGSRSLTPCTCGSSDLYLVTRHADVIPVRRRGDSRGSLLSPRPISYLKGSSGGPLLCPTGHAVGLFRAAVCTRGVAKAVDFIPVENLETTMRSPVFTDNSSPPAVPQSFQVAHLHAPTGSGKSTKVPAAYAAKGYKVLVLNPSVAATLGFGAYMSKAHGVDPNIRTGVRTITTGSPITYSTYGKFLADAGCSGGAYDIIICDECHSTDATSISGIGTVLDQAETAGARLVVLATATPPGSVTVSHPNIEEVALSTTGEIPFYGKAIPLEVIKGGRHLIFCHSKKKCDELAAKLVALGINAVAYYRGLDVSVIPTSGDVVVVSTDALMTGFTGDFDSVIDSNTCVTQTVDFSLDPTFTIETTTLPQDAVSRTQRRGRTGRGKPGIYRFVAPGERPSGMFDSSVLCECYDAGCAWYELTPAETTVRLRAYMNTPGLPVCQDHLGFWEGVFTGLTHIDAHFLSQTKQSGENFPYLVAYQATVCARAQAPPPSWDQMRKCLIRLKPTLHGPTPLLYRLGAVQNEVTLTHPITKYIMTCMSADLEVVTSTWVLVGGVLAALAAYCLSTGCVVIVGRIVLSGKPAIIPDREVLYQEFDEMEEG
T1 sequence (O92972 1027-1711 C1454S/C1711G, one chain of several): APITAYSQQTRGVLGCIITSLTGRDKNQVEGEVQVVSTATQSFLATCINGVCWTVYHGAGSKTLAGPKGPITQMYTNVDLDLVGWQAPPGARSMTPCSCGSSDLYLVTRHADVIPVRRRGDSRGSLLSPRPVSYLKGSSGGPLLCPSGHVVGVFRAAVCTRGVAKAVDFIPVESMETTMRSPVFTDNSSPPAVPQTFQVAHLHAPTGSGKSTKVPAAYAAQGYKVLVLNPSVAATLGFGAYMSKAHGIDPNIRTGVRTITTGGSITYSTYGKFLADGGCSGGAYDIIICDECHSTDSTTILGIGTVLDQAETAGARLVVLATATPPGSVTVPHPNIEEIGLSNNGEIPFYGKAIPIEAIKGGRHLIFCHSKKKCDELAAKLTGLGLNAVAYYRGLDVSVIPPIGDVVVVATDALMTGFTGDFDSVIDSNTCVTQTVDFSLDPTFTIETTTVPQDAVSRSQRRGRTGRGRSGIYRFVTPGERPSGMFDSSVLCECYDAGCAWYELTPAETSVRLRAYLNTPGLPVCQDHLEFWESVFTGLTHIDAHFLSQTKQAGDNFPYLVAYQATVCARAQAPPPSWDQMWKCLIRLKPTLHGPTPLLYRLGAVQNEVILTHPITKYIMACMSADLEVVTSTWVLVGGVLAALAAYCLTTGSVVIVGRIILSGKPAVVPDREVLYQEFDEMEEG

Turning to `COc1c(O[C@@H]2C[C@H]3C(=O)N[C@]4(C(=O)NS(=O)(=O)C5CC5)C[C@H]4/C=C\CCCCC[C@H](NC(=O)OC(C)(C)C)C(=O)N3C2)ccc2c(Cl)nccc12` [Compound 3], the IC50 in test [1] is 0.47 nM; in test [2] (BMS strain, read-out: IC50 against the NS3/4A BMS strain in the enzyme assay) it was 2.8 nM; in test [2] (NS3/4A BMS strain, read-out: IC50 Activity Range), less than 100 nM; in test [3], 0.6 nM.
